The source of these data is patent US20250129081A1, “METHANOGEN INHIBITORS” (PASTORAL GREENHOUSE GAS RESEARCH LIMITED, priority 2021, published 2025).

One may read the inhibition as the relative decrease from the control value, in per cent.

This assay has as its system rumen fluid. Briefly: Rumen in vitro (RIV) assay: methane production from incubated rumen fluid. The format is cell-based, cattle. The settings on record: for RIV % methane reduction: 60 mL rumen fluid-buffer mixture. The method, then: The compounds of the present invention were initially screened for activity using an in vitro fully automated incubation system for the measurement of total gas production and gas composition (methane and hydrogen). The system used is described in detail in the paper by Muetzel et al. (2014; Animal Feed Science and Technology 196, 1-11). The system in this specification is referred to as the rumen in vitro system or RIV. The RIV system provides a relatively simple tool for determining the rate and production of methane and also whether the rate and production of methane is inhibited or reduced by a particular compound or feed. Rumen in vitro assays use rumen fluid from donor animals (typically either sheep or cattle) which is typically combined with a buffer and then incubated in sealed fermentation vessels at 39° C. for either 24 or 48 h. These assays systems have been well-characterised and used by the scientific community over the last two decades (Rymer et al. 2005). The system that has been used here to characterise the effects of inhibitors on methane production and gas production, and the formation of H2, was described by Muetzel et al. (2014). Rumen in vitro assay systems reflect what can occur in the rumen in vivo, but only short-term, due to their short incubation times (typically not exceeding 48 h) which is limited by its buffering capacity and the fact that it is a closed system. Stock solutions of inhibitors were re-suspended in dimethylformamide (DMF) at concentrations 1000-fold higher than the highest used for the assays. Any further dilutions were also prepared using DMF. The total amount of inhibitor solution added to the rumen fluid-buffer mixture (60 mL) was 60 μl. Incubations used 60 ml of medium containing 12 ml of filtered rumen fluid and 48 ml of buffer in serum bottles for 24-48 h, essentially as described by Muetzel et al. (2014). Two fistulated cattle were used as donor animals for rumen fluid and treatments were incubated in duplicate bottles. Sets of duplicate incubation vials that contained ryegrass (with rumen fluid-buffer mixture), and ryegrass with 30 μM bromoethanesulfonate (BES) were also incubated as negative and positive controls, respectively. One experiment consists of 2 replicates of an inhibitor at any one concentration run at the same time, and a run can contain up to 32 bottle, including positive (30 µM BES) and negative (no inhibitor added) controls. Compound 1, for example, was tested using the 60 mL rumen in vitro assay system at 30 μM, 10 μM, 2 μM and 1 μM final concentrations and compared to a positive control with 30 μM BES. […] Compound 3 was very active in the RIV and only the lower concentrations of 2 μM and 1 μM were measured.

Turning to `O=c1c2cc3c(=O)n(CO[N+](=O)[O-])c(=O)c3cc2c(=O)n1CCOc1no[n+]([O-])c1S(=O)(=O)c1ccccc1` [Compound 2, 4-(2-(6-((nitrooxy)methyl)-1,3,5,7-tetraoxo-3,5,6,7-tetrahydropyrrolo[3,4-f]isoindol-2(1H)-yl)ethoxy)-3-(phenylsulfonyl)-1,2,5-oxadiazole 2-oxide], the “RIV % methane reduction” value is reported as 7.2% (1 μM compound), 30.6% (2 μM compound), 56.1% (10 μM compound) and 85.9% (30 μM compound).

Turning to `Cn1c(=O)c2cc3c(=O)n(CCOc4no[n+]([O-])c4S(=O)(=O)c4ccccc4)c(=O)c3cc2c1=O` [Compound 3], the “RIV % methane reduction” value by setting is: (1 μM compound) 49.0%; (2 μM compound) 80.4%. Further, the “activity in the RIV (in words)” value (only 2 μM and 1 μM measured) is “very active”.

For `O=c1[nH]c(=O)c2cc3c(=O)n(CCOc4no[n+]([O-])c4S(=O)(=O)c4ccccc4)c(=O)c3cc12` [Compound 1, 3-(phenylsulfonyl)-4-(2-(1,3,5,7-tetraoxo-3,5,6,7-tetrahydropyrrolo[3,4-f]isoindol-2(1H)-yl)ethoxy)-1,2,5-oxadiazole 2-oxide], the “RIV % methane reduction” value came out at 8.9% (1 μM compound), 23.3% (2 μM compound), 67.8% (10 μM compound) and 87.1% (30 μM compound). In addition, the inhibition at 2 µM (Bos taurus, 2 μM, at 18 h, 60 mL rumen in vitro assay system, read-out: inhibition level (methane)) is about 23.3%. Moreover, for the setting “Bos taurus, 30 μM, at 18 h, 60 mL rumen in vitro assay system, read-out: inhibition level (methane)”, the inhibition at 30 µM was about 87.1%.
